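All cell lines were grown in 96-well plates and treated with compound for 48 hours. At the GI50, growth is halved.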 The source made the active and inactive calls. Rule as the data show it: active = GI50 up to about 1.1 µM and inactive = higher.
Tests used:
Test in all cases: NCI-60 cell line screen, 48 h
[1] = tested on: SF-268
[2] = tested on: NCI-H226
[3] = tested on: UO-31
[4] = tested on: RXF 393
[5] = tested on: Malme-3M
[6] = tested on: SK-MEL-2
[7] = tested on: HL-60
[8] = tested on: SK-MEL-5
[9] = tested on: NCI-H522
[10] = tested on: HCT-116
[11] = tested on: TK-10
[12] = tested on: SNB-19
[13] = tested on: HCT-15
[14] = tested on: IGROV-1
[15] = tested on: PC-3
[16] = tested on: SR
[17] = tested on: CAKI-1
[18] = tested on: OVCAR-5
[19] = tested on: SK-OV-3
[20] = tested on: SNB-75

| SMILES | GI50 [1] | GI50 [2] | GI50 [3] | GI50 [4] | GI50 [5] | GI50 [6] | GI50 [7] | GI50 [8] | GI50 [9] | GI50 [10] | GI50 [11] | GI50 [12] | GI50 [13] [µM] | GI50 [14] | GI50 [15] | GI50 [16] | GI50 [17] | GI50 [18] | GI50 [19] | GI50 [20] |
| --- | --- | --- | --- | --- | --- | --- | --- | --- | --- | --- | --- | --- | --- | --- | --- | --- | --- | --- | --- | --- |
| CO/C=C(/C(=O)OC)c1ccccc1[C@H]1C[C@@H]1c1ccc(OC)cc1 | 25.1 µM (inactive) | 30.2 µM (inactive) | 26.4 µM (inactive) | 49.9 µM (inactive) | 15.6 µM (inactive) | 13.2 µM (inactive) | 25.2 µM (inactive) | 12.4 µM (inactive) | 7.93 µM (inactive) | 16.3 µM (inactive) | 37.5 µM (inactive) | 53.7 µM (inactive) | 19.2 | 14.3 µM (inactive) | 22.1 µM (inactive) | 8.73 µM (inactive) | 17.9 µM (inactive) | 41.1 µM (inactive) | 17.8 µM (inactive) |  |
| CN1N=C(c2ccncc2)OC1c1cccc(F)c1 (stereo not given) | > 100 µM (inactive) | 68.5 µM (inactive) | > 100 µM (inactive) | > 100 µM (inactive) |  | > 100 µM (inactive) | > 100 µM (inactive) | > 100 µM (inactive) | > 100 µM (inactive) | > 100 µM (inactive) | > 100 µM (inactive) | > 100 µM (inactive) | > 100 | > 100 µM (inactive) | > 100 µM (inactive) |  |  | > 100 µM (inactive) | > 100 µM (inactive) | > 100 µM (inactive) |
| CCOC(=O)c1sc2nc(SC)nc3c2c1NC(=O)CN3c1ccc(F)cc1 | 20 µM (inactive) | 41.7 µM (inactive) | 18 µM (inactive) | 18.8 µM (inactive) | 48.4 µM (inactive) | 54.3 µM (inactive) | 98.6 µM (inactive) | 46.3 µM (inactive) | 71.9 µM (inactive) | 26.4 µM (inactive) | 30.7 µM (inactive) | 27.8 µM (inactive) |  | > 100 µM (inactive) | 16.6 µM (inactive) | > 100 µM (inactive) | > 100 µM (inactive) | 41.7 µM (inactive) | 25 µM (inactive) |  |
| c1ccc(Nc2nnc(-c3ccccc3Nc3ccccc3-c3nnc(Nc4ccccc4)s3)s2)cc1 | > 100 µM (inactive) | > 100 µM (inactive) | > 100 µM (inactive) | > 100 µM (inactive) | > 100 µM (inactive) | > 100 µM (inactive) | > 100 µM (inactive) | > 100 µM (inactive) | > 100 µM (inactive) | > 100 µM (inactive) | > 100 µM (inactive) | > 100 µM (inactive) | > 100 | 7.14 µM (inactive) | > 100 µM (inactive) |  |  | > 100 µM (inactive) |  | > 100 µM (inactive) |
| S=C1N(c2ccc(Cl)cc2)C2=C(/N=N/c3ccccc3)C(=Nc3ccccc3S2)N1c1ccccn1 | 3.59 µM (inactive) |  | 10.1 µM (inactive) |  | 2.78 µM (inactive) |  | 12 µM (inactive) | 11.4 µM (inactive) |  | 14.1 µM (inactive) | 14.8 µM (inactive) | 13.9 µM (inactive) | 10.2 | 0.164 µM (active) | 13.2 µM (inactive) | 11.2 µM (inactive) | 13.8 µM (inactive) | 19.1 µM (inactive) | 17.8 µM (inactive) | 19 µM (inactive) |
| c1ccc2c(c1)ncn2CCn1ccnc1 | > 100 µM (inactive) | > 100 µM (inactive) | > 100 µM (inactive) | > 100 µM (inactive) | > 100 µM (inactive) | > 100 µM (inactive) | > 100 µM (inactive) | > 100 µM (inactive) | > 100 µM (inactive) |  | > 100 µM (inactive) | > 100 µM (inactive) | > 100 | > 100 µM (inactive) | > 100 µM (inactive) |  |  | > 100 µM (inactive) | > 100 µM (inactive) | > 100 µM (inactive) |
| NCCN1C(=O)c2ccccc2C1c1ccc(Cl)cc1 (stereo not given) | > 100 µM (inactive) |  | > 100 µM (inactive) | > 100 µM (inactive) |  | > 100 µM (inactive) | > 100 µM (inactive) | > 100 µM (inactive) |  | > 100 µM (inactive) | > 100 µM (inactive) | > 100 µM (inactive) | > 100 | > 100 µM (inactive) | 92.3 µM (inactive) | > 100 µM (inactive) | > 100 µM (inactive) | > 100 µM (inactive) | > 100 µM (inactive) | > 100 µM (inactive) |
| N#Cc1c(N)nc(Sc2ccccc2N)c(C#N)c1-c1ccccc1 | 17.8 µM (inactive) | 47.2 µM (inactive) | 11.4 µM (inactive) |  | 16.9 µM (inactive) | 10.9 µM (inactive) | 0.141 µM (active) | 19.4 µM (inactive) |  | 15.7 µM (inactive) | 11.5 µM (inactive) | 29.4 µM (inactive) | 15.2 | 16.9 µM (inactive) | 9.64 µM (inactive) | 21 µM (inactive) | 28.6 µM (inactive) | 46.3 µM (inactive) |  |  |
| COP(=O)(O)C(N)Cc1c[nH]c2ccccc12 (stereo not given) |  | > 100 µM (inactive) | > 100 µM (inactive) |  |  | > 100 µM (inactive) | > 10 µM (inactive) | > 100 µM (inactive) | > 100 µM (inactive) | > 100 µM (inactive) | > 100 µM (inactive) | > 100 µM (inactive) | > 100 | > 100 µM (inactive) | > 100 µM (inactive) | > 100 µM (inactive) | > 100 µM (inactive) | > 100 µM (inactive) | > 100 µM (inactive) |  |
| C=C1[C@@](C)([C@@H]2CCCS2)[C@H]2C(C)=C[C@]1(C)n1c(=O)n(-c3ccccc3)c(=O)n12 | > 100 µM (inactive) | > 100 µM (inactive) | > 100 µM (inactive) |  | > 100 µM (inactive) | > 100 µM (inactive) | > 100 µM (inactive) | > 100 µM (inactive) | > 100 µM (inactive) | > 100 µM (inactive) | > 100 µM (inactive) | > 100 µM (inactive) | > 100 | 56.2 µM (inactive) | > 100 µM (inactive) |  | > 100 µM (inactive) | > 100 µM (inactive) | > 100 µM (inactive) | 46.5 µM (inactive) |
| COC(=O)c1cc(OS(=O)(=O)C(F)(F)F)c(=O)n2c1CCCC2 | > 100 µM (inactive) | 9.2 µM (inactive) | > 100 µM (inactive) | > 100 µM (inactive) | > 100 µM (inactive) | > 100 µM (inactive) | > 100 µM (inactive) | > 100 µM (inactive) | > 100 µM (inactive) | > 100 µM (inactive) | > 100 µM (inactive) | > 100 µM (inactive) | > 100 | > 100 µM (inactive) | > 100 µM (inactive) |  | > 100 µM (inactive) | > 100 µM (inactive) | > 100 µM (inactive) | > 100 µM (inactive) |
| CC(=O)C1(c2ccccc2)CCCN(C)CC1 (stereo not given) |  | > 100 µM (inactive) | > 100 µM (inactive) |  | > 100 µM (inactive) | > 100 µM (inactive) |  | > 100 µM (inactive) |  | > 100 µM (inactive) | > 100 µM (inactive) | > 100 µM (inactive) | > 100 | > 100 µM (inactive) | > 100 µM (inactive) | > 100 µM (inactive) | > 100 µM (inactive) | > 100 µM (inactive) | > 100 µM (inactive) | > 100 µM (inactive) |
| O=C(/C=C/c1ccc2c(c1)OCO2)Cc1nc2ccccc2[nH]c1=O | 18.4 µM (inactive) |  | 22.9 µM (inactive) | 17.9 µM (inactive) | 18.3 µM (inactive) | 22 µM (inactive) | 44.3 µM (inactive) | 32.6 µM (inactive) | > 100 µM (inactive) | 22.5 µM (inactive) | 18.5 µM (inactive) | 24.2 µM (inactive) | 8.95 | 21 µM (inactive) | 23.2 µM (inactive) | 25.5 µM (inactive) | 16.8 µM (inactive) | 22.9 µM (inactive) | 18.6 µM (inactive) |  |
| Cc1cc(O)c(C(C)C)cc1C(=S)Nc1ccc(Cl)cc1 | 7 µM (inactive) |  |  |  | 7.52 µM (inactive) | 14.1 µM (inactive) | 7.05 µM (inactive) | 11.5 µM (inactive) | 5.61 µM (inactive) | 13 µM (inactive) |  |  | 10.7 | 3.32 µM (inactive) | 11 µM (inactive) | 4.95 µM (inactive) | 14.6 µM (inactive) | 15 µM (inactive) | 21.9 µM (inactive) |  |
| CCOC(=O)c1cc(NC(=O)c2ccccc2)c(=O)n2c(cc3c(Cl)cccc32)c1O | > 100 µM (inactive) | > 100 µM (inactive) | > 100 µM (inactive) | > 100 µM (inactive) | > 100 µM (inactive) | > 100 µM (inactive) | > 100 µM (inactive) | > 100 µM (inactive) | > 100 µM (inactive) | > 100 µM (inactive) | > 100 µM (inactive) | > 100 µM (inactive) | > 100 | > 100 µM (inactive) | > 100 µM (inactive) | > 100 µM (inactive) | > 100 µM (inactive) | > 100 µM (inactive) | > 100 µM (inactive) |  |
| Cc1sc2nc(-c3cccc([N+](=O)[O-])c3)c(/C=N/N=C(N)N)n2c1C | 1.93 µM (inactive) | 1.82 µM (inactive) | 1.75 µM (inactive) | 1.66 µM (inactive) | 2.08 µM (inactive) | 1.71 µM (inactive) | 1.81 µM (inactive) | 1.67 µM (inactive) | 1.77 µM (inactive) |  | 1.51 µM (inactive) | 1.76 µM (inactive) | 1.67 | 1.32 µM (inactive) | 1.63 µM (inactive) | 1.75 µM (inactive) | 1.82 µM (inactive) | 1.65 µM (inactive) | 1.8 µM (inactive) |  |

— ChEMBL document CHEMBL1201862, “PubChem BioAssay data set” (2004)
